According to patent publication US12215082B1 (priority 2023, dated 2025):

System: Mycobacterium tuberculosis H37Rv (susceptible)
Test: Resazurin Microplate Assay (REMA), anti-tubercular activity, H37Rv strain
Type: cell-based
Settings: 192 h, read-out: MIC Susceptible (H37Rv)

N#Cc1ccc(C(=O)C[n+]2ccc(/C=N/O)cc2)cc1.[Br-] [Compound 3d, (E)-1-(2-(4-Cyanophenyl)-2-oxoethyl)-4-((hydroxyimino)methyl)pyridin-1-ium bromide]
MIC: 16 µg/mL

O=C(C[n+]1ccc(/C=N/O)cc1)c1ccc(F)cc1.[Br-] [Compound 3c, (E)-1-(2-(4-Fluorophenyl)-2-oxoethyl)-4-((hydroxyimino)methyl)pyridin-1-ium bromide]
MIC: 32 µg/mL

O=C(C[n+]1ccc(/C=N/O)cc1)c1ccccc1.[Br-] [Compound 3a, (E)-4-((Hydroxyimino)methyl)-1-(2-oxo-2-phenylethyl)pyridin-1-ium bromide]
MIC: 32 µg/mL

O=C(C[n+]1ccc(/C=N/O)cc1)c1ccccc1[N+](=O)[O-].[Br-] [Compound 3e, (E)-4-((Hydroxyimino)methyl)-1-(2-(2-nitrophenyl)-2-oxoethyl)pyridin-1-ium bromide]
MIC: 64 µg/mL

O=C(C[n+]1ccc(/C=N/O)cc1)c1ccc(Br)cc1.[Br-] [Compound 3b, (E)-1-(2-(4-Bromophenyl)-2-oxoethyl)-4-((hydroxyimino)methyl)pyridin-1-ium bromide]
MIC: 32 µg/mL
